Assay results published in ChEMBL document CHEMBL1201862, “PubChem BioAssay data set” (2004).
Calls of active or inactive are those of the source.

What was measured:
INS1 = experiment: INS-1E survival protection against cytokine death – cell-based, luminescence, retest, dose response (AID 449756); format: functional; details: Rattus norvegicus;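 note: cell death triggered by IL-1 beta plus TNF-alpha plus IFN-gamma mixture; protective hits raise ATP signal compared with cytokine alone wells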
Cytochrome P450 2C19 = Cytochrome P450 2C19 (Homo sapiens, UniProt P33261); experiment: Cytochrome panel assay with activity outcomes. Panel member name: p450-cyp2c19 Compounds with AC50 equal or less than 10 uM are considered active; format: functional
Chain of Cytochrome P450 2C19 (P33261 whole entry): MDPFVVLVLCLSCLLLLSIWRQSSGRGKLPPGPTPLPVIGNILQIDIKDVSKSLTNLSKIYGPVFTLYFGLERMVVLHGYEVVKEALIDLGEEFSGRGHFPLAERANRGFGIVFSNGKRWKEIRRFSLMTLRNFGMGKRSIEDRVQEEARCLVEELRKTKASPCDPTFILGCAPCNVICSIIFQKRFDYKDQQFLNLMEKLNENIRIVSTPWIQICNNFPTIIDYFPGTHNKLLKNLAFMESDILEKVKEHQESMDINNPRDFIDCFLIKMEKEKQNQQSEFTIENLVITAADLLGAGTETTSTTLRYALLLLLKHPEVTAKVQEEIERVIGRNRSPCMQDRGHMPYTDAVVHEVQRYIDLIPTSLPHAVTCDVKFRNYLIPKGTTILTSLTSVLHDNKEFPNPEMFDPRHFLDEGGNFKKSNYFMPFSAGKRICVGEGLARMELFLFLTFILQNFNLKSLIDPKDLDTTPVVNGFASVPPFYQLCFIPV

Cytochrome P450 1A2 = target: T1, Cytochrome P450 1A2 (Homo sapiens, UniProt P05177);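 note: PubChem cytochrome P450 panel assay, CYP1A2 panel member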
T1 sequence (P05177 whole entry): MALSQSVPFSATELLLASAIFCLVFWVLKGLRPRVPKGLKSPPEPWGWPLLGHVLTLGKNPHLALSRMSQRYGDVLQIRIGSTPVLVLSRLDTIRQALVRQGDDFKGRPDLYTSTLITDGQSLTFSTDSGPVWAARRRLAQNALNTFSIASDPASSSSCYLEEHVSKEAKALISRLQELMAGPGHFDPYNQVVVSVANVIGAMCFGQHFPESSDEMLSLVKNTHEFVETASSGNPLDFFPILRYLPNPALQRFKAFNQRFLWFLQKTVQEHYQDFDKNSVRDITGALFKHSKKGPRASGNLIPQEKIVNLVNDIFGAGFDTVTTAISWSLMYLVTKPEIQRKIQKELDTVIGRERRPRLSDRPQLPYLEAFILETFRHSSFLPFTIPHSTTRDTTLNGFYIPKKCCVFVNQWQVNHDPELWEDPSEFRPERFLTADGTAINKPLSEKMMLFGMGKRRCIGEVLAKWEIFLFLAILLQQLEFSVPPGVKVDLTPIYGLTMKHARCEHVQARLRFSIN

[1] = Trypanosoma cruzi growth suppression in host cells – NIH3T3 host cells, beta-gal luminescence, confirmation (AID 2044); format: functional, cell-based;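 note: intracellular parasites grown in NIH/3T3 mouse fibroblasts as host cells; luminescent beta-galactosidase reporter signal from transgenic T. cruzi replicating inside host cells; inhibitors lower the luminescence signal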
[2] = NIH3T3 cell viability loss – ATP luminescence, mouse fibroblasts, counter-screen, dose response (AID 2010); format: functional, cell-based;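 note: cells exposed to compound for about 90 hours before reading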
[3] = viability of uninfected HEp-2 cells – cell-based, HTS, cytotoxicity control for RSV inhibitor project, dose response (AID 2410); format: functional; details: human respiratory syncytial virus
[4] = luciferase reporter signal suppression in cells – H4 neuroglioma cells, luminescence, dose response (AID 1990); format: functional, cell-based
[5] = Luminescence Cell-Based Dose Response HTS to Identify Inhibitors of 5'UTR Stem-Loop Driven Prion Protein mRNA Translation in H4 Neuroglioblastoma Cells. [Related pubchem assays: 1827 (Project Summary), 1813 (Primary HTS)]; format: functional
[6] = alpha-synuclein stem-loop luciferase translation blockers – H4 neuroglioma cells, luminescence, confirmation (AID 1988); format: functional, cell-based
[7] = viability of PTEN-deleted HCT116 cells – cell-based, HCT116 PTEN knockout, dose response (AID 1047); format: functional;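 note: HCT116 colon tumor cells with PTEN knocked out; cells exposed to compound for 60 hours before readout; potency for loss of cell viability measured by luminescence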
[8] = viability of HCT116 lacking mutant beta-catenin – cell-based, human colon tumor, dose response (AID 1045); format: functional;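 note: HCT116 colon tumor cells with beta catenin knocked out; cells exposed to compound for 60 hours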

Cc1cc(C(=O)CSc2nc3ccccc3c(=O)n2C)c(C)n1Cc1ccc2c(c1)OCO2
AC50 (INS1): 1.41 µM (active)

CN1CCN(c2ncc3nc(-c4cccc(C#N)c4)c(=O)n(Cc4ccc(F)cc4)c3n2)CC1
AC50 (Cytochrome P450 2C19; read-out: AC50): 10 µM (inconclusive)

COc1cccc(NC(S)=NN2CCN(C)CC2)c1
AC50 (Cytochrome P450 2C19; read-out: AC50): 28.2 µM (inconclusive)

Cc1ccc(C)c(OCCCC(C)(C)C(=O)O)c1 [GEMFIBROZIL]
AC50 (Cytochrome P450 1A2): 12.6 µM (inconclusive)

O=C(/C=C/c1ccccc1)NC(NC(=S)Nc1ccc(Cl)cc1Cl)C(Cl)(Cl)Cl (centres undefined)
EC50 [1]: 2.02 µM (active)
EC50 [2]: > 60 µM (not active)

CCOC(=O)c1cccc(-c2c(-c3ccccc3)ncc3cc(OC)c(OC)cc23)c1
CC50 [3]: 20.4 µM (active)

CCOC(=O)C1(CCOc2ccccc2)CCN(Cc2ccc3nonc3c2)CC1
EC50 [1]: 2.61 µM (active)
EC50 [2]: > 60 µM (not active)

O=C(/C=C/c1ccccc1)Nc1ccc2c(c1)OCCO2
EC50 [4]: 10.7 µM (inconclusive)
EC50 [5]: 10.4 µM (inconclusive)
EC50 [6]: 9.98 µM (inconclusive)

CC(C)(C)c1ccc(C(=O)Nc2ccc(S(=O)(=O)Nc3cnc4ccccc4n3)cc2)cc1
CC50 [3]: 8.3 µM (active)

CCCCN1CC(=O)C(c2nc(-c3ccc(Cl)cc3)cs2)=C1N
EC50 [4]: > 120 µM (not active)
EC50 [5]: > 120 µM (not active)
EC50 [6]: > 120 µM (not active)

Cn1c(=O)[nH]c(=O)c2c1nc(N1CCCCCC1)n2Cc1cccc2ccccc12
EC50 [4]: 24.4 µM (active)
EC50 [5]: > 120 µM (not active)
EC50 [6]: 45 µM (active)

Oc1nc2cc3c(cc2cc1C(c1nnnn1C1CCCC1)N1CCSCC1)OCCO3 (centres undefined)
EC50 [7]: 28.9 µM (active)
EC50 [8]: 94.3 µM (active)

COc1ccc(NC(=O)/C(C#N)=C/c2cc(C)n(-c3ccc(N4CCOCC4)c([N+](=O)[O-])c3)c2C)cc1
EC50 [4]: > 120 µM (not active)
EC50 [5]: 35.2 µM (active)
EC50 [6]: > 120 µM (not active)

CCCSc1nnc(CSc2nc3nc(C)cc(C)n3n2)o1
AC50 (Cytochrome P450 2C19; read-out: AC50): 15.8 µM (inconclusive)

C=C(C)COc1ccc2c(C)c(CC(=O)OC)c(=O)oc2c1C
EC50 [7]: 81.2 µM (active)
EC50 [8]: 31.9 µM (active)

OC[C@H]1O[C@H](n2cnc3c(NC4CCCC4)nc(Cl)nc32)[C@@H](O)[C@@H]1O
AC50 (Cytochrome P450 1A2): 39.8 µM (inconclusive)

CCC(C)c1ccc(-c2cc(C(=O)OCC(=O)Nc3cc(C)on3)c3ccccc3n2)cc1 (centres undefined)
CC50 [3]: 43.8 µM (active)

COC(=O)[C@@]1(Cc2ccccc2)[C@H]2c3cc(C(=O)N4CCCC4)[nH]c3C[C@H]2CN1C(=O)c1ccccc1
AC50 (Cytochrome P450 1A2): 1.26 µM (inconclusive)

COc1ccccc1N1CCN(C(CNC(=O)Oc2ccccc2)c2cccnc2)CC1 (centres undefined)
EC50 [1]: 5.42 µM (active)
EC50 [2]: > 60 µM (not active)

O=c1n(Cc2ccccc2F)c2ccccc2n1Cc1ccccc1F
EC50 [4]: 22 µM (active)
EC50 [5]: > 120 µM (not active)
EC50 [6]: > 120 µM (not active)

O=C(O)CCC(=O)Nc1ccc2ccccc2c1
AC50 (Cytochrome P450 1A2): 0.0631 µM (inconclusive)

CN1C/C(=C/c2ccsc2)C(=O)/C(=C/c2ccsc2)C1
EC50 [1]: 0.156 µM (active)
EC50 [2]: > 30 µM (not active)

COc1ccccc1Cn1nnc2c(O)nc(C3CCN(C(=O)c4ccccc4Cl)CC3)nc21
EC50 [4]: > 120 µM (not active)
EC50 [5]: > 120 µM (not active)
EC50 [6]: 68.6 µM (active)

CN(C)c1ncc2nc(-c3ccccc3)c(=O)n(C)c2n1
AC50 (Cytochrome P450 2C19; read-out: AC50): 39.8 µM (inconclusive)

CCC(C)Sc1nc2c(c(=O)[nH]c(=O)n2C)n1C (centres undefined)
CC50 [3]: 20.8 µM (active)

Cc1ccn2cc(-c3cccc(S(=O)(=O)N4CC(C)OC(C)C4)c3)nc2c1 (centres undefined)
CC50 [3]: > 50 µM (active)

COc1ccccc1N1CCN(S(=O)(=O)CCNC(=O)C2CC(=O)N(c3ccccc3)C2)CC1 (centres undefined)
EC50 [4]: > 120 µM (not active)
EC50 [5]: > 120 µM (not active)
EC50 [6]: 114 µM (active)

CCOc1ccccc1Nc1cc(C)nc2ccc(C)cc12
CC50 [3]: 26.1 µM (active)

N[C@](CC1c2ccccc2Oc2ccccc21)(C(=O)O)[C@@H]1C[C@@H]1C(=O)O
AC50 (Cytochrome P450 1A2): 31.6 µM (inconclusive)

CCOc1cc(/C=C(\C#N)C(=O)Nc2cccc(C(=O)O)c2)ccc1OCc1ccccc1Cl
CC50 [3]: 29.9 µM (active)

COc1ccc(CN2CCN(Cc3cc4ccccc4o3)CC2CCO)cc1C (centres undefined)
EC50 [1]: 0.306 µM (active)
EC50 [2]: > 60 µM (not active)

CN(C)CCN(C(=O)c1ccc(S(=O)(=O)N(C)c2ccccc2)cc1)c1nc2ccc(Cl)cc2s1
EC50 [1]: 0.117 µM (active)
EC50 [2]: > 15 µM (not active)

COc1ccccc1NS(=O)(=O)c1cccc(NC(=O)c2sc3ccccc3c2Cl)c1
EC50 [1]: 1.19 µM (active)
EC50 [2]: > 60 µM (not active)

Cc1ccc(N2CCN(C(=O)c3nn(C)c4c3CS(=O)(=O)c3ccccc3-4)CC2)c(C)c1
CC50 [3]: 10.3 µM (active)

CCCOc1ccc([N+](=O)[O-])cc1C1NC(S)=NC(c2ccccc2)=C1C(=O)OCC (centres undefined)
CC50 [3]: 40.5 µM (active)

O=C(NCc1ccccc1)c1ccc(C(=O)N(C2CCCCC2)C2CCCCC2)cc1
EC50 [1]: 2.27 µM (active)
EC50 [2]: > 60 µM (inconclusive)

O=C(N/N=C\c1cn(-c2ccccc2)nc1-c1ccccc1)c1ccc2c(c1)OCO2
AC50 (Cytochrome P450 1A2): 3.55 µM (inconclusive)

Cc1ccc(-c2nnc(N3CCCCCC3)c3ccccc23)cc1
EC50 [1]: 1.19 µM (active)
EC50 [2]: > 60 µM (not active)

CC(=O)N(C(C)=O)c1[nH]cc2c3ccccc3nc-2c1C#N
EC50 [4]: 9.63 µM (active)
EC50 [5]: 12.9 µM (active)
EC50 [6]: 15.7 µM (active)

CCOC(=O)C1=C(CSc2nc3ccccc3s2)NC(=O)NC1c1cccc([N+](=O)[O-])c1 (centres undefined)
AC50 (Cytochrome P450 2C19; read-out: AC50): 1.58 µM (inconclusive)

COC(=O)C1CCC(C)(C(=O)Nc2ccccc2)C1(C)C (centres undefined)
AC50 (Cytochrome P450 1A2): 15.8 µM (inconclusive)

CCc1ccc(N(C(=O)c2csnn2)C(C(=O)NC(C)(C)C)c2ccncc2)cc1 (centres undefined)
AC50 (Cytochrome P450 2C19; read-out: AC50): 2.82 µM (inconclusive)

Cc1ccc(C2CC(c3cccc(C)c3)n3nc(N)nc3N2)cc1 (centres undefined)
AC50 (INS1): > 260 µM (inactive)

Cc1cccc(N(CC(=O)N2CCOCC2)S(C)(=O)=O)c1
AC50 (Cytochrome P450 2C19): inconclusive

Nc1ccccc1C(=O)Nc1ccc(Cl)cc1Cl
CC50 [3]: 35.7 µM (active)

Cc1c(C(=O)NN2CCCCC2)nn(-c2ccc(Cl)cc2Cl)c1-c1ccc(I)cc1
EC50 [4]: 11.3 µM (active)
EC50 [5]: > 120 µM (not active)
EC50 [6]: 12.4 µM (active)

O=C(c1csnn1)N1CCC[C@@]2(CCN(c3ncccn3)C2)C1
AC50 (Cytochrome P450 1A2): 12.6 µM (inconclusive)

Cc1nc2ccccc2c(=O)n1-c1cc([N+](=O)[O-])cc([N+](=O)[O-])c1
EC50 [1]: 1.98 µM (active)
EC50 [2]: > 60 µM (not active)

Cc1ccc(-c2cc(C(F)F)n3ncc(C(=O)N4CCc5ccccc5C4)c3n2)cc1
EC50 [1]: 1.72 µM (active)
EC50 [2]: > 60 µM (not active)

COc1ccc(-c2cc(C(F)F)n3ncc(C(=O)N4CCCCC4)c3n2)cc1
CC50 [3]: > 50 µM (active)
EC50 [1]: 1.25 µM (active)
EC50 [2]: > 60 µM (not active)

Cc1ccc(Nc2nnc(-c3ccc(N4CCOCC4)c([N+](=O)[O-])c3)c3ccccc23)cc1
CC50 [3]: 10.8 µM (active)

COC(=O)c1ccc(CSc2ccc3nnc(-c4ccccc4)n3n2)o1
EC50 [4]: > 120 µM (not active)
EC50 [5]: 15.7 µM (active)
EC50 [6]: 16.6 µM (active)

COc1ccc(C2=NN(C(=O)COc3ncnc4ccccc34)C(c3ccco3)C2)cc1 (centres undefined)
EC50 [4]: 13.8 µM (active)
EC50 [5]: > 120 µM (not active)
EC50 [6]: > 60 µM (not active)

CC(=O)N1CCc2cc(S(=O)(=O)NCCC3=CCCCC3)ccc21
AC50 (INS1): 4.54 µM (active)

Cc1ccc(Cn2nnc3c(O)nc(C4CCN(S(=O)(=O)Cc5ccccc5)CC4)nc32)cc1
CC50 [3]: 26.8 µM (active)

CCCN1CCC(=NNc2ccc(S(=O)(=O)N(CC)CC)cc2[N+](=O)[O-])CC1
EC50 [4]: 16.5 µM (active)
EC50 [5]: > 120 µM (not active)
EC50 [6]: 8.05 µM (active)

Cc1cc(Cl)ccc1OCCCC(=O)NC1CCN(C)CC1
EC50 [1]: 0.164 µM (active)
EC50 [2]: > 60 µM (not active)

Cc1ccccc1C(=O)NC(=S)Nc1sc2c(c1C#N)CCCC2
CC50 [3]: 25.9 µM (active)

CSCc1cc(N2CCOCC2)nc(SCc2ccc(Cl)c(Cl)c2)n1
CC50 [3]: 26.1 µM (active)

COc1ccc(-c2csc3ncnc(N4CCN(S(=O)(=O)c5ccc(C)c(C)c5)CC4)c23)cc1
EC50 [1]: 2.05 µM (active)
EC50 [2]: 24.1 µM (active)

CCCc1cc(NCCCCO)n2c(nc3ccccc32)c1C#N
EC50 [4]: 25.6 µM (active)
EC50 [5]: > 120 µM (not active)
EC50 [6]: > 120 µM (not active)
